pIC50: −log10 of the molar value.
How the values were obtained:
Hck = Hck (Homo sapiens, UniProt P08631); conditions: cited from earlier work
human T cells = conditions: read-out: IC50 anti-CD3-stimulated tyrosine phosphorylation of human T cells; cited from earlier work
[1] = test system: PPAR-[Gamma]:SRC-1 complexes; assay: PPAR-[Gamma]:SRC-1 fluorescence protein-fragment complementation assay (PCA), drug treatment; format: cell-based, human; conditions: HEK293 cells; for effect on PPAR-[Gamma]:SRC-1 complex: 10 micromolar PP3 or 1 micromolar PD 153035 for 6.5 hours prior to rosiglitazone for 1.5 hours
From the text: Reporter fragments for PCA were generated by oligonucleotide synthesis (Blue Heron Biotechnology, Bothell, Wash.). First, oligonucleotides coding for polypeptide fragments YFP[1]and YFP[2] […] Next, PCR mutagenesis was used to generate the mutant fragments IFP[1] and IFP[2]. […] The YFP[1], YFP[2], IFP[1] and IFP[2] fragments were amplified by PCR to incorporate restriction sites and a linker sequence, described below, in configurations that would allow fusion of a gene of interest to either the 5′- or 3′-end of each reporter fragment. […] Additionally, these vectors still retain the SV40 origin, allowing for episomal expression in cell lines expressing the SV40 large T antigen (e.g. HEK293T, Jurkat or COS).
Recombinants in the host strains DH5-alpha (Invitrogen, Carlsbad, Calif.) or XL1 Blue MR (Stratagene, La Jolla, Calif.) were screened by colony PCR, and clones containing inserts of the correct size were subjected to end sequencing to confirm the presence of the gene of interest and in-frame fusion to the appropriate reporter fragment. A subset of fusion constructs were selected for full-insert sequencing by primer walking. DNAs were isolated using Qiagen MaxiPrep kits (Qiagen, Chatsworth, Calif.). PCR was used to assess the integrity of each fusion construct, by combining the appropriate gene-specific primer with a reporter-specific primer to confirm that the correct gene-fusion was present and of the correct size with no internal deletions.
HEK293 cells were maintained in MEM alpha medium (Invitrogen) supplemented with 10% FBS (Gemini Bio-Products), 1% penicillin, and 1% streptomycin, and grown in a 37° C. incubator equilibrated to 5% CO2.

Src family kinases = conditions: cited from earlier work

Chain of Hck (P08631 whole entry, species assumed): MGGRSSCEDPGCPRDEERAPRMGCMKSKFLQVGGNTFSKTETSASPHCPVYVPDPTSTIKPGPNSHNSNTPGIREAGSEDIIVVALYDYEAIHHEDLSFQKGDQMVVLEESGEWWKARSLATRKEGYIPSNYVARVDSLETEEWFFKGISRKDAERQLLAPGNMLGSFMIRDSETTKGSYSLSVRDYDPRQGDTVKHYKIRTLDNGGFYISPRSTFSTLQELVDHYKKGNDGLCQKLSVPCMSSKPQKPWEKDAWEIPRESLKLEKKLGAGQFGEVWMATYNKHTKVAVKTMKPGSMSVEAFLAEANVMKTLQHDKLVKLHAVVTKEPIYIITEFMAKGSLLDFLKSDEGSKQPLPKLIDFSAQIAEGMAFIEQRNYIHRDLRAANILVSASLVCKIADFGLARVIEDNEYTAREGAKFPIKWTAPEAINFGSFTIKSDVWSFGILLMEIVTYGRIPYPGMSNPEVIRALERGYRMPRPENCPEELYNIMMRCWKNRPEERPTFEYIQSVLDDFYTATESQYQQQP

4-amino-5-(4-chlorophenyl)-7-(t-butyl)pyrazolo[3,4-d]pyrimidine [PP2]
pIC50 (Hck): 8.30 | pIC50 (human T cells): 6.22

CN(CCOc1ccc(CC2SC(=O)NC2=O)cc1)c1ccccn1 (stereo not drawn) [rosiglitazone]
increase of fluorescence intensity of the PPAR-[Gamma]:SRC-1 PCA ([1]; 15 micromolar rosiglitazone for 90 minutes vs unstimulated): 6 fold

Nc1ncnc2c1cnn2-c1ccccc1 [PP3, 4-Amino-7-phenylpyrazol[3,4-d]pyrimidine]
effect on PPAR-[Gamma]:SRC-1 complex [1]: no effect | activity against Src family kinases (Src family kinases): inactive

COc1cc2ncnc(Nc3cccc(Br)c3)c2cc1OC [PD153035, 4-[(3-Bromophenyl)amino]-6,7-dimethoxyquinazoline]
effect on PPAR-[Gamma]:SRC-1 complex [1]: no effect

From patent publication US20060094682A1, “Kinase inhibitors for the treatment of diabetes and obesity” (Odyssey Thera, Inc., priority 2004, published 2006)
